In patent US6528677B1, “Selective retinoid agonists” (Hoffmann-La Roche Inc., priority 1999, dated 2003):

Assays:
[1] = tested on: elastase-induced emphysema in rats; experiment: Repair of alveoli in elastase-induced emphysema (rat model); type: in vivo, male Sprague Dawley rats; conditions: starting 21 days post elastase injury, morphometric analysis of lung sections
Description: Effects of RAR Selective Retinoids on Repair of Alveoli in Elastase-induced Emphysema
RAR selective agonists were evaluated for its effects on alveolar repair in the rat model of elastase-induced emphysema in rats (D. Massaro et al. Nature Medicine (1997, 3, 675). Animals were divided into treatment groups of approximately eight. Lung inflammation and alveolar damage was induced in male Sprague Dawley rats by a single installation of pancreatic elastase(porcine derived, Calbiochem) 2 U/gram body mass. Three weeks post injury all-trans retinoic acid or RAR agonist was dissolved in dimethylsulfoxide (20 mg/ml) and stored at −20 C. Fresh working stocks were prepared fresh daily by dilution in PBS to a final concentration of 2 mg/ml. Animals were dosed once daily with the retinoid by intraperitoneal injection or orally, starting 21 days post injury. Control groups were challenged with elastase and 21 days later treated with Vehicle (DMSO/PBS) for 14 days. Animals were sacrificed 24 hours after the last dose of by exsanguination under deep anesthesia.
The lungs were inflated with 10% neutral buffered formalin by intratracheal instillation at a constant rate (1 ml/gram body mass/min). The lung was excised and immersed in fixative for 24 hours prior to processing. Standard methods were used to prepare 5 um paraffin sections. Sections were stained with Hematoxylin and Eosin (H%E). Computerized Morphometric analysis was performed to determine the average alveolar size and alveolar number (Table 1).

| melting point [°C] | Compound | other results |
| --- | --- | --- |
| 194 to 196 | CC(C)CC1(C(=O)Oc2ccc(C(=O)O)cc2)CC2=C(C1)C(C)(C)CCC2(C)C [Example 3.7, 2-Isobutyl-4,4,7,7-tetramethyl-2,3,4,5,6,7-hexahydro-1H-indene-2-carboxylic acid 4-carboxy-phenyl ester] |  |
| 182 to 183 | CC1(C)CCC(C)(C)C2=C1CC(CCc1ccccc1)(C(=O)Oc1ccc(C(=O)O)cc1)C2 [Example 3.9, 4,4,7,7-Tetramethyl-2-phenethyl-2,3,4,5,6,7-hexahydro-1H-indene-2-carboxylic acid 4-carboxy-phenyl ester] |  |
| 149 to 150 | CCCCCCC1(C(=O)Oc2ccc(C(=O)O)cc2)CC2=C(C1)C(C)(C)CCC2(C)C [Example 3.8, 2-Hexyl-4,4,7,7-tetramethyl-2,3,4,5,6,7-hexahydro-1H-indene-2-carboxylic acid 4-carboxy-phenyl ester] |  |
| 172 to 173 | CCCCC1(C(=O)Oc2ccc(C(=O)O)cc2)CC2=C(C1)C(C)(C)CCC2(C)C [Example 3.6, 2-Butyl-4,4,7,7-tetramethyl-2,3,4,5,6,7-hexahydro-1H-indene-2-carboxylic acid 4-carboxy-phenyl ester] |  |
| 156 to 157 | CCCC1(C(=O)Oc2ccc(C(=O)O)cc2)CC2=C(C1)C(C)(C)CCC2(C)C [Example 3.5, 4,4,7,7-Tetramethyl-2-propyl-2,3,4,5,6,7-hexahydro-1H-indene-2-carboxylic acid 4-carboxy-phenyl ester] |  |
| 205 to 206 | CC1(C)CCC(C)(C)C2=C1CC(C)(C(=O)Oc1ccc(C(=O)O)cc1)C2 [B, 2,4,4,7,7-pentamethyl-2,3,4,5,6,7-hexahydro-1H-indene-2-carboxylic acid 4-carboxy-phenyl ester] |  |
| 175 to 176 | CCC1(C(=O)Oc2ccc(C(=O)O)cc2)CC2=C(C1)C(C)(C)CCC2(C)C [C, 2-ethyl-4,4,7,7-tetramethyl-2,3,4,5,6,7-hexahydro-1H-indene-2-carboxylic acid 4-carboxy-phenyl ester] |  |
| 183 to 184 | CC1(C)CCC(C)(C)C2=C1CC(Cc1ccccc1)(C(=O)Oc1ccc(C(=O)O)cc1)C2 [E, 2-benzyl-4,4,7,7-tetramethyl-2,3,4,5,6,7-hexahydro-1H-indene-2-carboxylic acid 4-carboxy-phenyl ester] |  |
| 156 to 158 | CCCCCC1(C(=O)Oc2ccc(C(=O)O)cc2)CC2=C(C1)C(C)(C)CCC2(C)C [compound D, 4,4,7,7-tetramethyl-2-pentyl-2,3,4,5,6,7-hexahydro-1H-indene-2-carboxylic acid 4-carboxy-phenyl ester] | % repair area ([1]; 0.3 mg/kg p.o. once daily): 11.1%; % repair area ([1]; 0.5 mg/kg i.p. once daily): 54%; % repair area ([1]; 1 mg/kg p.o. once daily): 44%; % repair area ([1]; 3 mg/kg p.o. once daily): 48.6% |
